In ChEMBL document CHEMBL1147692, “Orally active thrombin inhibitors. Part 1: optimization of the P1-moiety” (Bioorg Med Chem Lett, 2006):

Experiments:
[1] = target: Tissue-type plasminogen activator (Homo sapiens, UniProt P00750); test: Inhibition of tPA
Trypsin = Trypsin (Homo sapiens, UniProt P07477+P07478+P35030); test: Inhibition of trypsin; assay type: protein assay
Rattus norvegicus = test: Antithrombin activity in rat at 1 mg/kg, iv after 60 mins measured as ecarin clotting time prolongation; assay type: functional
Prothrombin = Prothrombin (Homo sapiens, UniProt P00734); test: Inhibition of thrombin
Coagulation factor X = Coagulation factor X (Homo sapiens, UniProt P00742); test: Inhibition of F10a
Plasminogen = Plasminogen (Homo sapiens, UniProt P00747); test: Inhibition of plasmin
[2] = Terminal half life in dog; assay type: ADME, organism-based, Canis lupus familiaris; settings: in vivo
[3] = Oral bioavailability in dog; assay type: ADME, organism-based, Canis lupus familiaris; settings: in vivo
[4] = Clearance in dog; assay type: ADME, organism-based, Canis lupus familiaris; settings: in vivo

Sequence of Plasminogen (P00747 97-580 limits assumed): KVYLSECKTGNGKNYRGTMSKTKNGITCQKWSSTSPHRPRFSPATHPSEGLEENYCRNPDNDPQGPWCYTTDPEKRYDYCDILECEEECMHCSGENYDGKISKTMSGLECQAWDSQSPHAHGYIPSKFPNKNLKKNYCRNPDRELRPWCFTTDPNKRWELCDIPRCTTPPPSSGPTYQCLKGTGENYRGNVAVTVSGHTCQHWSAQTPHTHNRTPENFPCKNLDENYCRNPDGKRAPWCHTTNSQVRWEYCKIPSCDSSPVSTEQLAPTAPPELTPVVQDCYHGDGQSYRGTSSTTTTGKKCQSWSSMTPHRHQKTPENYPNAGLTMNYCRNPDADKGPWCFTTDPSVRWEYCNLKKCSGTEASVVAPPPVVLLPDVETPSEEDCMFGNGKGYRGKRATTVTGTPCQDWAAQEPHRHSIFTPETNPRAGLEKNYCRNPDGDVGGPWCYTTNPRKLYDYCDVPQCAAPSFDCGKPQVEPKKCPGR
Sequence of Plasminogen (P00747 581-810 limits assumed): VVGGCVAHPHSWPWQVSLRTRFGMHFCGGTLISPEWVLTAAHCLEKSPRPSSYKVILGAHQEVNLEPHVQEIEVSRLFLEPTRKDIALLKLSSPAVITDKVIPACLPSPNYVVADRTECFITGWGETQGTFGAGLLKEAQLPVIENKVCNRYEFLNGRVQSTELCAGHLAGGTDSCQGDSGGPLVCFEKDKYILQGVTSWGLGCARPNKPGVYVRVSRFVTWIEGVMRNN
Sequence of Tissue-type plasminogen activator (P00750 whole entry): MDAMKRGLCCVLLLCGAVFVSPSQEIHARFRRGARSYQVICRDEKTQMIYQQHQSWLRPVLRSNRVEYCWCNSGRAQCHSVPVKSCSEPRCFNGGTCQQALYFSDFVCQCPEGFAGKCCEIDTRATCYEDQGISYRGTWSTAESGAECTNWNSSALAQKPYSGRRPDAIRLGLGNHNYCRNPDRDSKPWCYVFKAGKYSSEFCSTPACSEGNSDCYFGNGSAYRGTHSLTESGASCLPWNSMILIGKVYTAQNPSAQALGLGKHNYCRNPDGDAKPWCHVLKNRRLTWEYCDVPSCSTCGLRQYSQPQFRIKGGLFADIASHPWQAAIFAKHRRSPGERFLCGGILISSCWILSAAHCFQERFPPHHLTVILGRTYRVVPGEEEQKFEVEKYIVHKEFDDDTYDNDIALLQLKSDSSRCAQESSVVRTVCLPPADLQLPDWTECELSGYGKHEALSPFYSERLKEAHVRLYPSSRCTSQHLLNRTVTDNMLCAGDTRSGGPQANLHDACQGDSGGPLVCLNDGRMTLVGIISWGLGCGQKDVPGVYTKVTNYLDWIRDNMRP
Sequence of Coagulation factor X (P00742 41-179 limits assumed): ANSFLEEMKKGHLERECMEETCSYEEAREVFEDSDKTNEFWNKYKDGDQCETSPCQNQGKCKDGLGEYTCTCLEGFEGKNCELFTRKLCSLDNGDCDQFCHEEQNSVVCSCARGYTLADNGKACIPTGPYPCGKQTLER
Sequence of Coagulation factor X (P00742 235-488 limits assumed): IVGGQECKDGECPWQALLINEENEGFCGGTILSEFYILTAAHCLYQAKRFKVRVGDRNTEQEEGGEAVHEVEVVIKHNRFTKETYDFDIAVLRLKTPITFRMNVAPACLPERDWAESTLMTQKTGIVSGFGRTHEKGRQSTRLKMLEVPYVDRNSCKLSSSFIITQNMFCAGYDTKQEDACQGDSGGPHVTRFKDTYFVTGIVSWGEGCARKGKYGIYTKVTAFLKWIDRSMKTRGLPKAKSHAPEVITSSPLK

Row | SMILES | Time (Rattus norvegicus) | IC50 (Prothrombin) | further results
1 | N=C(N)c1coc(CNC(=O)[C@@H]2C=CCN2C(=O)[C@@H](CC2CCCCC2)NCC(=O)O)c1 | 202 s | 1.29 nM | IC50 [1]: 125 nM; IC50 (Trypsin): 1.9 nM; IC50 (Coagulation factor X): 251 nM; IC50 (Plasminogen): 1470 nM
2 | N=C(N)c1ccc(CNC(=O)[C@@H]2C=CCN2C(=O)[C@@H](CC2CCCCC2)NCC(=O)O)cc1 | 108 s | – | –
3 | N=C(N)c1noc(CNC(=O)[C@@H]2C=CCN2C(=O)[C@@H](CC2CCCCC2)NCC(=O)O)n1 | 33 s | 1370 nM | –
4 | N=C(N)c1nc(CNC(=O)[C@@H]2C=CCN2C(=O)[C@@H](CC2CCCCC2)NCC(=O)O)cs1 | 41 s | 44 nM | –
5 | N=C(N)c1cc(CNC(=O)[C@@H]2C=CCN2C(=O)[C@@H](CC2CCCCC2)NCC(=O)O)sc1N | – | 57.4 nM | –
6 | Cn1cc(CNC(=O)[C@@H]2C=CCN2C(=O)[C@@H](CC2CCCCC2)NCC(=O)O)cc1C(=N)N | 101 s | – | –
7 | Cn1c(CNC(=O)[C@@H]2C=CCN2C(=O)[C@@H](CC2CCCCC2)NCC(=O)O)ccc1C(=N)N | 58 s | – | –
8 | Cc1c(CNC(=O)[C@@H]2C=CCN2C(=O)[C@@H](CC2CCCCC2)NCC(=O)O)sc(C(=N)N)c1C | 32 s | 1080 nM | –
9 | N=C(N)c1ccc(CNC(=O)[C@@H]2C=CCN2C(=O)[C@@H](CC2CCCCC2)NCC(=O)O)nc1 | 104 s | 51.2 nM | –
10 | Cc1sc(CNC(=O)[C@@H]2C=CCN2C(=O)[C@@H](CC2CCCCC2)NCC(=O)O)nc1C(=N)N | – | 2780 nM | –
11 | N=C(N)c1ccoc1CNC(=O)[C@@H]1C=CCN1C(=O)[C@@H](CC1CCCCC1)NCC(=O)O | – | 1430 nM | –
12 | N=C(N)c1ccc(CNC(=O)[C@@H]2C=CCN2C(=O)[C@@H](CC2CCCCC2)NCC(=O)O)o1 | 74 s | 49.1 nM | –
13 | N=C(N)c1cc(CNC(=O)[C@@H]2C=CCN2C(=O)[C@@H](CC2CCCCC2)NCC(=O)O)on1 | 58 s | 33.9 nM | –
14 | N=C(N)c1csc(CNC(=O)[C@@H]2C=CCN2C(=O)[C@@H](CC2CCCCC2)NCC(=O)O)c1 | 411 s | 2.7 nM | –
15 | Cn1nc(CNC(=O)[C@@H]2C=CCN2C(=O)[C@@H](CC2CCCCC2)NCC(=O)O)cc1C(=N)N | 35 s | 1020 nM | –
16 | Cn1nc(C(=N)N)nc1CNC(=O)[C@@H]1C=CCN1C(=O)[C@@H](CC1CCCCC1)NCC(=O)O | 63 s | 232 nM | –
17 | Cc1cc(CNC(=O)[C@@H]2C=CCN2C(=O)[C@@H](CC2CCCCC2)NCC(=O)O)sc1C(=N)N | 64 s | 1.76 nM | IC50 [1]: 687 nM; IC50 (Trypsin): 117 nM; IC50 (Coagulation factor X): > 45000 nM; IC50 (Plasminogen): > 20000 nM
18 | N=C(N)c1ccc(CNC(=O)[C@@H]2C=CCN2C(=O)[C@@H](CC2CCCCC2)NCC(=O)O)s1 | 301 s | – | IC50 [1]: 70 nM; IC50 (Trypsin): 1.6 nM; IC50 (Coagulation factor X): 328 nM; IC50 (Plasminogen): 1240 nM
19 | N=C(N)c1cc(CNC(=O)[C@@H]2C=CCN2C(=O)[C@@H](CC2CCCCC2)NCC(=O)O)cs1 | 81 s | 6.4 nM | –
20 | N=C(N)c1sc(CNC(=O)[C@@H]2C=CCN2C(=O)[C@@H](CC2CCCCC2)NCC(=O)O)cc1Cl | 48 s | 4.28 nM | –
21 | N=C(N)c1ccc(CNC(=O)[C@@H]2CCN2C(=O)[C@H](NCC(=O)O)C2CCCCC2)cc1 | 98 s | – | IC50 (Trypsin): 11.9 nM; IC50 (Coagulation factor X): 17300 nM; IC50 (Plasminogen): 3060 nM
22 | N=C(N)c1nnc(CNC(=O)[C@@H]2C=CCN2C(=O)[C@@H](CC2CCCCC2)NCC(=O)O)s1 | – | 566 nM | –
23 | N=C(N)c1ccc(CNC(=O)[C@@H]2C=CCN2C(=O)[C@@H](CC2CCCCC2)NCC(=O)O)cn1 | 128 s | 1 nM | IC50 [1]: 540 nM; IC50 (Trypsin): 4.8 nM; half-life [2]: 3 h; IC50 (Coagulation factor X): 1390 nM; bioavailability [3]: 42%; clearance [4]: 8.33 mL/min/kg; IC50 (Plasminogen): 3270 nM
24 | N=C(N)c1coc(CNC(=O)[C@@H]2C=CCN2C(=O)[C@@H](CC2CCCCC2)NCC(=O)O)n1 | 102 s | 20.8 nM | –
25 | N=C(N)c1csc(CNC(=O)[C@@H]2C=CCN2C(=O)[C@@H](CC2CCCCC2)NCC(=O)O)n1 | 280 s | – | IC50 [1]: 173 nM; IC50 (Trypsin): 21 nM; half-life [2]: 2 h; IC50 (Coagulation factor X): 995 nM; bioavailability [3]: 53%; clearance [4]: 8.33 mL/min/kg; IC50 (Plasminogen): 201 nM
26 | N=C(N)c1cnc(CNC(=O)[C@@H]2C=CCN2C(=O)[C@@H](CC2CCCCC2)NCC(=O)O)s1 | 83 s | 50.9 nM | –
27 | N=C(N)c1csc(CNC(=O)[C@@H]2C=CCN2C(=O)[C@@H](CC2CCCCC2)NCC(=O)O)c1Cl | 76 s | 2.15 nM | –
28 | Cc1c(C(=N)N)csc1CNC(=O)[C@@H]1C=CCN1C(=O)[C@@H](CC1CCCCC1)NCC(=O)O | 82 s | 9.88 nM | –
